Measured values from patent US9907846B2 (priority 2013, dated 2018).
“And” between values parts separate entries of the source, which are not always exact repeats. Equal entries are not always repeated. Each block holds one compound with its values, some of them ahead of it.

How the values were obtained:
[1] = tested on: PC-3 prostate cancer cells; test: cells; assay type: cell-based, human
Procedure: The samples were 5-fold serially diluted in 6 steps starting from the concentration of 100 μg/ml, and incubated with PC-3 prostate cancer cells for 3 days. Then the cells were stained and read by the FMCA method.
Then the cells were stained and the cancer cell killing effect was read by the FMCA method.

[2] = tested on: U937 cells
Procedure: The read out was the particle formulation i.e. the extraction of the membrane into the quillaja micell, the anticancer cell killing effect tested on U937 cancer cells and the stimulation of IL-8 of the same cells (see Materials and Methods).
The Alamar Blue assay was used essentially according recommendations from the supplier (Serotec Ltd, Oxford, UK). Briefly, the cells were adjusted to 1×10^5 cells/ml in cell culture medium and 200 μl/well cells in 96-well plates (Nunc, Roskilde, Denmark). Then various QS formulations or medium alone (as control) was added in triplicates and incubated 3 days at 37° C. in humidified atmosphere containing 5% CO2. Alamar Blue was added to a final concentration of 10% to the wells after specified time points. The cell metabolic activity was subsequently measured up to 8 hrs.
Free form of QA is used as positive control. The cell metabolism activity is analyzed by Alamar Blue at 570 and 600 nm.

[3] = Water solubility of drugs incorporated into G3 particles; details: drug alone or incorporated into G3 particles
[4] = tested on: HL-60 AML cells; test: FMCA cancer cell killing on HL-60 AML cells; assay type: cell-based, human; details: 3 days, selected concentrations
Procedure: The FMCA method is based on measurement of fluorescence generated from hydrolysis of fluorescein diacetate (FDA) to fluorescein by cells with intact plasma membranes. After above mentioned incubation for 3 days, the medium was removed by aspiration. After one wash with PBS, 100 μl/well of FDA dissolved in a physiological buffer (10 μg/ml) was added. The plates were incubated for 45 minutes and the generated fluorescence from each well was measured in a 96-well scanning fluorometer. The fluorescence is proportional to the number of intact cells in the well. Quality criteria for a successful analysis included a fluorescence signal in the control wells of more than five times of the mean blank value, a mean co-efficient of variation (CV) in the control wells of less than 30%.
The nanoparticles G3 and G3-DT formulated as described in Ex 1 and 2 were compared with the active component QHC form for the cancer cell killing effect. The samples were 5-fold serial diluted in 6 steps starting from 100 μg/ml, and incubated for 3 days with HL-60 AML cells. Then the cells were stained and read by the FMCA method.
HL-60 AML cells were exposed for 3 days at pre-determined concentrations of G3 and cytarabine separately and in combination of these two as shown on FIG. 7. Then the cells were stained and read for cancer cell killing effect by the FMCA method. […]

[5] = Detection of vitamin D3 in the water phase (DiaSorin Liaison); assay type: physicochemical
Procedure: Samples with cholecalciferol (vitamin D3) incorporated in G3 particles were analysed at a University Hospital Laboratory on a Liaison automatic instrument. Although the assay (DiaSorin Liaison) is designed to measure 25-HO-D3 it has about one percent cross-reactivity with non-hydroxylated vitamin D3.
First, 50% cholesterol and 50% vitamin D3 were used to form the lipid membrane. Quil A was added into the water phase to generate the G3 particles (for details, please refer to Example 1). 100% Cholesterol and 100% Vitamin D3 in water were used as the controls. Samples with vitamin D3 incorporated in G3 particles were analysed at the Uppsala University Hospital Laboratory on a DiaSorin Liaison automatic instrument.

Compound: CO[C@H]1C(=O)[C@]2(C)[C@@H](OC)C[C@H]3OC[C@@]3(OC(C)=O)[C@H]2[C@H](OC(=O)c2ccccc2)[C@]2(O)C[C@H](OC(=O)[C@H](O)[C@@H](NC(=O)OC(C)(C)C)c3ccccc3)C(C)=C1C2(C)C [Cabazitaxel, cabazitaxel]
- IC50 ([1]; Homo sapiens, 72 h): 25.5 µM

Compound: N[C@H]1C(O)O[C@H](CO)[C@H](O)[C@@H]1O (stereo partly drawn) [Galactosamine]
- EC50 [2]: 0.367 µg/mL and 0.389 µg/mL and 0.214 µg/mL

- solubility in water (visual) [3]: clear solutions
Compound: CS(=O)(=O)OCCCCOS(C)(=O)=O [busulfan]

Compound: Nc1ccn([C@@H]2O[C@H](CO)[C@@H](O)[C@@H]2O)c(=O)n1 [cytarabine]
- cells killed [4]: < 55%

Compound: CC(=O)O[C@@]12CO[C@@H]1C[C@H](O)[C@@]1(C)C(=O)[C@H](O)C3=C(C)[C@@H](OC(=O)[C@H](O)[C@@H](NC(=O)OC(C)(C)C)c4ccccc4)C[C@@](O)([C@@H](OC(=O)c4ccccc4)[C@H]21)C3(C)C [docetaxel]
- cells killed ([1]; PC-3 cells, 3 days, selected concentrations, FMCA): > 2%

Compound: C=C1CC[C@H](O)C/C1=C/C=C1\CCC[C@]2(C)[C@@H]([C@H](C)CCCC(C)C)CC[C@@H]12 [vitamin D3 control, cholecalciferol]
- vitamin D3 detected in the water phase [5]: only trace amount
